# Active and inactive are the calls of the source.
# Legend:
# [1] = molecular target: Troponin, cardiac muscle (Homo sapiens, UniProt P19429+P45379+P63316); test: Fluorescence-based biochemical high throughput dose response assay for activators of the calcium sensitivity of cardiac Regulated Thin Filaments (RTF). [Related pubchem assays (depositor defined):AID493008, AID493018, AID504382, AID504383]; assay type: protein-complex assay
# [2] = molecular target: T1, Corticotropin-releasing factor receptor 2/Corticotropin-releasing factor-binding protein (Homo sapiens, UniProt P24387+Q13324); test: activators of CRF receptor 2 with binding protein – uHTS hits, confirmation (AID 602473); assay type: functional; conditions: read-out: EC50_Mean
# T1 sequence (Q13324 whole entry): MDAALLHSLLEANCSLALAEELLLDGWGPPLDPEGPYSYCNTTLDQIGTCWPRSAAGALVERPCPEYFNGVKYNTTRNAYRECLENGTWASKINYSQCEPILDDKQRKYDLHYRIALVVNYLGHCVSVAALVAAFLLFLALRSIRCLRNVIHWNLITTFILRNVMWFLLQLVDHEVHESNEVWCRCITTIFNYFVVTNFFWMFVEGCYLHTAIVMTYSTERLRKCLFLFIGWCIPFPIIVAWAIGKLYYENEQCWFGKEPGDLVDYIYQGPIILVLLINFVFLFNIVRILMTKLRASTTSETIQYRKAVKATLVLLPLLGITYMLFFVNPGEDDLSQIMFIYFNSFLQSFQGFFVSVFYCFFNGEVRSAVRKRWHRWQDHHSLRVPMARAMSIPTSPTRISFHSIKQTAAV
# T1 sequence (P24387 whole entry): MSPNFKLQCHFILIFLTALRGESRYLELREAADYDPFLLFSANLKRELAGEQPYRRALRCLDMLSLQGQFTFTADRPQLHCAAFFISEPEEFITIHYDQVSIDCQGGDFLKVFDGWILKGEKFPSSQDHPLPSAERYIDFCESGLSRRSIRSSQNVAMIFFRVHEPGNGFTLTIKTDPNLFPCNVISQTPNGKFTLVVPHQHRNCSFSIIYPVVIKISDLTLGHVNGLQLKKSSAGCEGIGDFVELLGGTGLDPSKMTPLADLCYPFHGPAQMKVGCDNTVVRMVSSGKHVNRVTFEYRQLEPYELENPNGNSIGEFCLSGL
# [3] = system: T-cell; test: loss of vesicle association with mouse CD8+ T cells – mouse 2C CD8+ T cells, flow cytometry, dose response (AID 485284); assay type: functional
# [4] = molecular target: T2, Calpain-2 catalytic subunit (Sus scrofa, UniProt P43367); test: m-calpain protease blockers, concentration series – biochemical, fluorogenic peptide substrate, dose response (AID 1420); assay type: functional
# T2 sequence (P43367 whole entry): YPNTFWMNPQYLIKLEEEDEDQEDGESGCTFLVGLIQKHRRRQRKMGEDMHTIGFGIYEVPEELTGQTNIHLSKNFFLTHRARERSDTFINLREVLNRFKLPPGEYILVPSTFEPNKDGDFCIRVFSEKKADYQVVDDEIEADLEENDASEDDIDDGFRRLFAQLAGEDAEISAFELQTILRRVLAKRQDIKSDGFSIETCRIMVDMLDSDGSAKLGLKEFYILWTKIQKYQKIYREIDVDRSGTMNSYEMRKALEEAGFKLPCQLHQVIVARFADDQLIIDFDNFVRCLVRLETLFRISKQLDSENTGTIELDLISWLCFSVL
# [5] = viability loss of HPDE-C7K cells – cell-based, fluorescence, HTS, primary screen (AID 431); assay type: functional; conditions: Homo sapiens
# [6] = molecular target: T3, E3 ubiquitin-protein ligase XIAP (Homo sapiens, UniProt P98170); test: Counter Screen using XIAP-Bir3 for Chemical Antagonists of Bir1/2 domains of IAP-family anti-apoptotic proteins. [Related pubchem assays (depositor defined):AID1018, AID1449, AID1514, AID1638, AID1749, AID1750, AID488957, AID488963]
# [7] = molecular target: T3, E3 ubiquitin-protein ligase XIAP; test: small molecules displacing peptide from XIAP – biochemical, IAP family, fluorescence polarization (AID 1018); assay type: functional
# [8] = HPDE-C7 pancreatic duct cell viability loss – fluorescence, HTS (AID 430); assay type: functional, cell-based; conditions: Homo sapiens
# [9] = molecular target: T4, Runt-related transcription factor 1/Core-binding factor subunit beta (Homo sapiens, UniProt Q01196+Q13951); test: disruptors of Runt domain/CBFb-SMMHC interaction – biochemical, FRET, Cerulean-Runt, Venus-CBFb-SMMHC, uHTS, […] (AID 1434); assay type: protein assay
# [10] = molecular target: T4, Runt-related transcription factor 1/Core-binding factor subunit beta; test: Runt domain/CBFb-SMMHC interaction disruptors – biochemical, TR-FRET (AID 1438); assay type: protein assay
# [11] = molecular target: T5, Sphingosine 1-phosphate receptor 4 (Homo sapiens, UniProt O95977); test: Fluorescence dose response cell-based high throughput screening assay for agonists of the Sphingosine 1-Phosphate Receptor 4 (S1P4). [Related pubchem assays: 1509 (Primary screen.), 1523 (Confirmation screen in triplicates.)]; assay type: functional
# T5 sequence (O95977 whole entry): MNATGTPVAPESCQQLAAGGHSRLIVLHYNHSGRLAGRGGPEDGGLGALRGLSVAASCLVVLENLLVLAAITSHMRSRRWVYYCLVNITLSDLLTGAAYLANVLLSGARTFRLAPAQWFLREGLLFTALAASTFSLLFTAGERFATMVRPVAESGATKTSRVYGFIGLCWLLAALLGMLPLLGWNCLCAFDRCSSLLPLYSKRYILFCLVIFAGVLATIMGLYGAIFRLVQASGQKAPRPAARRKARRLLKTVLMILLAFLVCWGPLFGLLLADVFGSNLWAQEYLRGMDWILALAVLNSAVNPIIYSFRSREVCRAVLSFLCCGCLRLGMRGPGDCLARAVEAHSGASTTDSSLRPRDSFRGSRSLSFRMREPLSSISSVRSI
# [12] = molecular target: Sphingosine 1-phosphate receptor 1 (Homo sapiens, UniProt P21453); test: Fluorescence-based counterscreen assay for S1P4 agonists: Cell-based dose response high throughput screening assay to identify agonists of the Sphingosine 1-Phosphate Receptor 1 (S1P1). [Related pubchem assays (depositor defined):AID1509, AID1523, AID1801, AID463107, AID463118, AID463119, AID463122, AID463123, AID463129, AID463225, AID504400, AID504460]; assay type: functional
compound,measurement,setting,value
Cc1ccc[n+](-c2[n-]c(=O)sc2C=O)c1,EC50,[1],2.18 µM (active)
same,EC50,[2],11.5 µM (active)
CC(=O)c1ccc(-c2csc(N3CCC(C(N)=O)CC3)n2)cc1,EC50,[3],2.47 µM (active)
COc1ccccc1-c1nnc(SCC(=O)NCc2c(C)c(Cl)cc(C(C)C)c2O)o1,IC50,[4],15.8 µM (not active)
same,EC50,[5],12 µM (active)
same,IC50,[6],> 100 µM (inactive)
same,IC50,[7],> 100 µM (not active)
same,EC50,[8],10.1 µM (active)
CCNc1sc(C(=O)c2cccs2)c(N)c1-c1nc2ccccc2s1,IC50,[9],> 100 µM (inactive)
same,IC50,[10],63.2 µM (inactive)
CCCN(CCC)c1ccc(/C=C/c2ccc3cc(OCC)ccc3n2)cc1,EC50,[11],> 49.8 µM (not active)
same,EC50,[12],> 5.53 µM (inactive)

# Reference: ChEMBL document CHEMBL1201862, “PubChem BioAssay data set” (2004)
